Experimental data published in ChEMBL document CHEMBL4219121, “Synthesis, antitumor activity and DNA binding features of benzothiazolyl and benzimidazolyl substituted isoindolines” (Bioorg Med Chem, 2018).
Activity calls are given as the source filed them. The calls are words filed in the database; no cut-off is given here.

Experiments:
[1] = tested on: HeLa; test: Antiproliferative activity against human HeLa cells after 72 hrs by MTT assay; type: functional, cell-based
[2] = tested on: CAKI-2; test: Cytotoxicity against human Caki2 cells after 72 hrs by MTT assay; type: functional, cell-based; details: CAKI-2, 72 h
[3] = tested on: Calf thymus DNA; test: Binding affinity to calf thymus DNA at 1 to 25 uM by circular dichroism spectral analysis; type: nucleic-acid assay; details: Bos taurus
[4] = biological target: T1, DNA topoisomerase 1 (Homo sapiens) (UniProt P11387); test: Poison activity at human topoisomerase1 assessed as accumulation of nicked DNA at 50 uM using supercoiled pUC19 as substrate pretreated with substrate for 45 mins followed by enzyme addition measured by agarose gel electrophoresis relative to control
T1 sequence (whole entry): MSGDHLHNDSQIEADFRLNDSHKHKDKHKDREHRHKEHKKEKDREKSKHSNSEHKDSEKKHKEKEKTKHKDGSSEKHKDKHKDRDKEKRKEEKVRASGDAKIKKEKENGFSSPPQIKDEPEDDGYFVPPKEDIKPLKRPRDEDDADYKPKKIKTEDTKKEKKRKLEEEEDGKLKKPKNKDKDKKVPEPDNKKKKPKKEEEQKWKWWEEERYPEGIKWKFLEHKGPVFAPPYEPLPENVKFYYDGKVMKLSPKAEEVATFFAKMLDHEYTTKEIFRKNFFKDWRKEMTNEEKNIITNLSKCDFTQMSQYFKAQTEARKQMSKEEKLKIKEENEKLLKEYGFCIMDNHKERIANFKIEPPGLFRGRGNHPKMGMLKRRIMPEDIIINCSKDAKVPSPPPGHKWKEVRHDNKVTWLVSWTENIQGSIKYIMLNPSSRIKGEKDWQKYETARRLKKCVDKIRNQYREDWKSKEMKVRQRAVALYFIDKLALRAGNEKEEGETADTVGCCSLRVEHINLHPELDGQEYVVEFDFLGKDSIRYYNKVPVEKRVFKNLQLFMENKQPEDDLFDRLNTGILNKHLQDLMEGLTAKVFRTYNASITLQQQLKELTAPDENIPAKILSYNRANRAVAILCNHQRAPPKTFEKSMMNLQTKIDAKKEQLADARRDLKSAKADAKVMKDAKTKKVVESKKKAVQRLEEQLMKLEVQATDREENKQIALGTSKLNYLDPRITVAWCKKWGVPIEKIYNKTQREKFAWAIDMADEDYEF

[5] = Drug uptake in human Caki2 cells at 50 uM measured after 5 hrs by Phalloidin CruzFluorTM 488 conjugate/propidium iodide staining based fluorescence microscopic analysis; type: ADME, cell-based; details: caki-2, 5 h
[6] = tested on: Calf thymus DNA; test: Binding affinity to calf thymus DNA assessed as change in melting temperature at drug/DNA ratio of 1 by spectrophotmetric method; type: nucleic-acid assay; details: Bos taurus
[7] = tested on: Calf thymus DNA; test: Binding affinity to calf thymus DNA assessed as change in melting temperature at drug/DNA ratio of 0.25 by spectrophotmetric method; type: nucleic-acid assay; details: Bos taurus
[8] = tested on: HepG2; test: Antiproliferative activity against human HepG2 cells after 72 hrs by MTT assay; type: functional, cell-based; details: HepG2, 72 h
[9] = biological target: T1, DNA topoisomerase 1 (Homo sapiens); test: Inhibition of human topoisomerase1-mediated DNA relaxation assessed as DNA intercalation at 5 to 50 uM using supercoiled pUC19 as substrate pretreated with substrate for 45 mins followed by enzyme addition measured by agarose gel electrophoresis
[10] = tested on: Calf thymus DNA; test: Binding affinity to calf thymus DNA assessed as change in melting temperature at drug/DNA ratio of 0.5 by spectrophotmetric method; type: nucleic-acid assay; details: Bos taurus
[11] = tested on: BJ; test: Antiproliferative activity against human BJ cells after 72 hrs by MTT assay; type: cell-based
[12] = biological target: T1, DNA topoisomerase 1 (Homo sapiens); test: Poison activity at human topoisomerase1 assessed as accumulation of nicked DNA at 10 uM using supercoiled pUC19 as substrate pretreated with substrate for 45 mins followed by enzyme addition measured by agarose gel electrophoresis relative to control
[13] = biological target: T1, DNA topoisomerase 1 (Homo sapiens); test: Poison activity at human topoisomerase1 assessed as accumulation of nicked DNA at 5 to 50 uM using supercoiled pUC19 as substrate pretreated with substrate for 45 mins followed by enzyme addition measured by agarose gel electrophoresis
[14] = Drug uptake in nucleus of human Caki2 cells at 50 uM measured after 5 hrs by Phalloidin CruzFluorTM 488 conjugate/propidium iodide staining based fluorescence microscopic analysis; type: ADME, subcellular; details: caki-2, 5 h
[15] = biological target: T1, DNA topoisomerase 1 (Homo sapiens); test: Poison activity at human topoisomerase1 assessed as accumulation of nicked DNA at 20 uM using supercoiled pUC19 as substrate pretreated with substrate for 45 mins followed by enzyme addition measured by agarose gel electrophoresis relative to control
[16] = tested on: SW-620; test: Antiproliferative activity against human SW620 cells after 72 hrs by MTT assay; type: functional, cell-based; details: SW-620, 72 h
[17] = tested on: MCF7; test: Antiproliferative activity against human MCF7 cells after 72 hrs by MTT assay; type: functional, cell-based; details: MCF7, 72 h
[18] = Drug uptake in cytoplasm of human Caki2 cells at 50 uM measured after 5 hrs by Phalloidin CruzFluorTM 488 conjugate/propidium iodide staining based fluorescence microscopic analysis; type: ADME, subcellular; details: caki-2, 5 h
[19] = Drug uptake in nucleolus of human Caki2 cells at 50 uM measured after 5 hrs by Phalloidin CruzFluorTM 488 conjugate/propidium iodide staining based fluorescence microscopic analysis; type: ADME, subcellular; details: caki-2, 5 h
[20] = tested on: Calf thymus DNA; test: Binding affinity to calf thymus DNA at 1 to 50 uM by circular dichroism spectral analysis; type: nucleic-acid assay; details: Bos taurus
[21] = tested on: SW-620; test: Induction of apoptosis in human SW620 cells assessed as activation of caspase-6 at 0.5 uM measured after 48 hrs by colorimetric assay; type: functional, cell-based
[22] = tested on: SW-620; test: Induction of apoptosis in human SW620 cells assessed as activation of caspase-2 at 0.5 uM measured after 48 hrs by colorimetric assay; type: functional, cell-based
[23] = tested on: HeLa; test: Cell cycle arrest in human HeLa cells assessed as accumulation at subG1 phase at 0.5 uM after 48 hrs by propidium iodide staining based flow cytometric method (reference value: 17 to 20.1 %); type: functional
[24] = tested on: SW-620; test: Cell cycle arrest in human SW620 cells assessed as accumulation at subG1 phase at 1 uM after 48 hrs by propidium iodide staining based flow cytometric method (reference value: 4.1 to 11.3 %); type: functional
[25] = tested on: SW-620; test: Cell cycle arrest in human SW620 cells assessed as accumulation at subG1 phase at 0.5 uM after 48 hrs by propidium iodide staining based flow cytometric method (reference value: 4.1 to 11.3 %); type: functional
[26] = tested on: SW-620; test: Induction of apoptosis in human SW620 cells assessed as phenotypic changes after 24 to 48 hrs by microscopic analysis; type: functional, cell-based
[27] = tested on: HeLa; test: Cell cycle arrest in human HeLa cells assessed as accumulation at subG1 phase at 0.5 to 1 uM after 24 hrs by propidium iodide staining based flow cytometric method; type: functional
[28] = biological target: DNA topoisomerase 2-alpha (Homo sapiens) (UniProt P11388); test: Poison activity at human topoisomerase2 assessed as accumulation of linear DNA at 10 to 50 uM using supercoiled pUC19 as substrate pretreated with substrate for 45 mins followed by […] measured by ethidium bromide staining based agarose gel electrophoresis
Chain of DNA topoisomerase 2-alpha (Homo sapiens) (P11388 whole entry): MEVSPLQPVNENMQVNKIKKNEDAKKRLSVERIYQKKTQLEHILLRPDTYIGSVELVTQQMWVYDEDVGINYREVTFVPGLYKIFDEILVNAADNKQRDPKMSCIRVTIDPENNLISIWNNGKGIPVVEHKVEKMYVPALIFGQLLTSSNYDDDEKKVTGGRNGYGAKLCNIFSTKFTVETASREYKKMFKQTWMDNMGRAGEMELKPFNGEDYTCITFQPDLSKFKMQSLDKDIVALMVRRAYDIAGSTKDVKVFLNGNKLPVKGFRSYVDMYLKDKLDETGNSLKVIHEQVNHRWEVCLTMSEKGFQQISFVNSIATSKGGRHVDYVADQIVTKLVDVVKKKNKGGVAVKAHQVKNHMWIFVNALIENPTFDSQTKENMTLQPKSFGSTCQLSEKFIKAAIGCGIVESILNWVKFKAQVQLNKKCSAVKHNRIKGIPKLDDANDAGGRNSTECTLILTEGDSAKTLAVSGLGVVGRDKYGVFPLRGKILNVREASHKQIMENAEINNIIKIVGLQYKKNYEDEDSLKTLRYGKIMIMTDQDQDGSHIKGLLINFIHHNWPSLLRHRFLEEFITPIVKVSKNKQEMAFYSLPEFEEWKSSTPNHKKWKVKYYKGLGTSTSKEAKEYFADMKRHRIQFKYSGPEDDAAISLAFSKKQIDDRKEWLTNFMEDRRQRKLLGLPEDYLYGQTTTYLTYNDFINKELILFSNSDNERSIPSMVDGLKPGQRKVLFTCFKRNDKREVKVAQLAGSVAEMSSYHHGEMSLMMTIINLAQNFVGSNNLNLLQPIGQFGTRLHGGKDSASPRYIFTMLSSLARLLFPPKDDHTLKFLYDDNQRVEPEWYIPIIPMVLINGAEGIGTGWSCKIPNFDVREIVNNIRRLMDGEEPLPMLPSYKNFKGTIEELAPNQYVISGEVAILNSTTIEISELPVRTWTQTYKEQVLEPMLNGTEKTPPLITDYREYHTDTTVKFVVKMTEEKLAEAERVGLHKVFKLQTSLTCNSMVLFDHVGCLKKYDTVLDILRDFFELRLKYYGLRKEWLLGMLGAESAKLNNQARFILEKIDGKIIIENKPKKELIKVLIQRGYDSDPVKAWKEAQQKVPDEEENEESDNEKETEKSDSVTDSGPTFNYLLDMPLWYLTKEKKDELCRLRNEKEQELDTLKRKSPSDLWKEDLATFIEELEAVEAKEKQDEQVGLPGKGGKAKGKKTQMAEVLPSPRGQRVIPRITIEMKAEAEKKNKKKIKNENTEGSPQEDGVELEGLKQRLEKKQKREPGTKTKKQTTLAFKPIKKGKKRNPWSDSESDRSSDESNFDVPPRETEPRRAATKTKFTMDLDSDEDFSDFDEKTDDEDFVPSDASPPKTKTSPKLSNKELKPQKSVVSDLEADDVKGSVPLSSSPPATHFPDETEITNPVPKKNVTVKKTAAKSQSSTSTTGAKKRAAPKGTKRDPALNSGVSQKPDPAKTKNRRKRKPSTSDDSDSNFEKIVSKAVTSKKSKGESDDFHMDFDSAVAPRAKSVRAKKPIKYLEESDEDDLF

[29] = tested on: HeLa; test: Cell cycle arrest in human HeLa cells assessed as accumulation at subG1 phase at 1 uM after 48 hrs by propidium iodide staining based flow cytometric method (reference value: 17 to 20.1 %); type: functional
[30] = tested on: HeLa; test: Induction of apoptosis in human HeLa cells assessed as phenotypic changes after 24 to 48 hrs by microscopic analysis; type: functional, cell-based
[31] = tested on: SW-620; test: Induction of apoptosis in human SW620 cells assessed as activation of caspase-8 at 0.5 uM after 24 to 48 hrs by colorimetric assay; type: functional, cell-based
[32] = tested on: SW-620; test: Cell cycle arrest in human SW620 cells assessed as accumulation at subG1 phase at 0.5 to 1 uM after 24 hrs by propidium iodide staining based flow cytometric method; type: functional
[33] = tested on: HeLa; test: Induction of apoptosis in human HeLa cells assessed as activation of caspase-8 at 0.5 uM after 24 to 48 hrs by colorimetric assay; type: functional, cell-based
[34] = tested on: HeLa; test: Induction of apoptosis in human HeLa cells assessed as activation of caspase-2 at 1 uM measured after 48 hrs by colorimetric assay; type: functional, cell-based
[35] = tested on: HeLa; test: Cell cycle arrest in human HeLa cells assessed as accumulation at subG1 phase at 1 to 5 uM after 24 hrs by propidium iodide staining based flow cytometric method; type: functional
[36] = tested on: HeLa; test: Cell cycle arrest in human HeLa cells assessed as accumulation at subG1 phase at 5 uM after 48 hrs by propidium iodide staining based flow cytometric method (reference value: 17 to 20.1 %); type: functional
[37] = tested on: HeLa; test: Induction of apoptosis in human HeLa cells assessed as activation of caspase-8 at 1 uM after 24 to 48 hrs by colorimetric assay; type: functional, cell-based
[38] = tested on: SW-620; test: Induction of apoptosis in human SW620 cells assessed as activation of caspase-6 at 1 uM measured after 48 hrs by colorimetric assay; type: functional, cell-based
[39] = tested on: SW-620; test: Cell cycle arrest in human SW620 cells assessed as accumulation at subG1 phase at 5 uM after 48 hrs by propidium iodide staining based flow cytometric method (reference value: 4.1 to 11.3 %); type: functional
[40] = tested on: SW-620; test: Induction of apoptosis in human SW620 cells assessed as activation of caspase-8 at 1 uM after 24 to 48 hrs by colorimetric assay; type: functional, cell-based
[41] = tested on: SW-620; test: Induction of apoptosis in human SW620 cells assessed as activation of caspase-2 at 1 uM measured after 48 hrs by colorimetric assay; type: functional, cell-based
[42] = tested on: SW-620; test: Cell cycle arrest in human SW620 cells assessed as accumulation at subG1 phase at 1 to 5 uM after 24 hrs by propidium iodide staining based flow cytometric method; type: functional

SMILES	IC50 [1] [µM]	IC50 [2] [µM]	Drug uptake [5]	ΔTm [6] [°C]	ΔTm [7] [°C]	IC50 [8] [µM]	inhibition (qualitative) [9]	ΔTm [10] [°C]	IC50 [11] [µM]	Drug uptake [14]	fold change (FC) [15]	IC50 [16] [µM]	IC50 [17] [µM]	Drug uptake [18]	Activity [20]	Activity [24] [%]	Activity [26]	Activity [28]	Activity [29] [%]	Activity [30]	other results
Cl.Cl.c1ccc2c(c1)CN(c1nc3ccc(C4=NCCN4)cc3s1)/C2=N/c1nc2ccc(C3=NCCN3)cc2s1	74.5	12.6	Active	12.2	6.8	35	Active	10.5	31.8	Active	3.7 to 9	> 100	1.48	Active	–	–	–	–	–	–	Activity [3]: Active; fold change (FC) [4]: 3.5; fold change (FC) [12]: 1.5 to 3.7; Activity [13]: Active
Cl.Cl.c1ccc2c(c1)CN(c1nc3ccc(C4=NCCN4)cc3[nH]1)/C2=N/c1nc2ccc(C3=NCCN3)cc2[nH]1	15.4	80.2	Active	–	9.3	9.01	Active	18.5	22.9	Active	1.8	35	23.4	–	Active	–	–	–	–	–	Drug uptake [19]: Active
CC(C)NC(=N)c1ccc2nc(N3Cc4ccccc4C3=O)sc2c1.Cl	0.32	0.75	Active	4.4	1.2	0.34	–	3.2	0.05	Active	–	0.15	0.36	Active	Active	59.9	Active	Active	38.1	Active	Activity [21]: Active; Activity [22]: Active; Activity [23]: 45.7%; Activity [25]: 33.9%; Activity [27]: inactive; Activity [31]: inactive; Activity [32]: inactive; Activity [33]: inactive
Cl.O=C1c2ccccc2CN1c1nc2ccc(C3=NCCN3)cc2s1	1	1.5	Active	6.2	1.8	0.78	–	3.1	0.2	Active	–	0.74	0.7	Active	Active	34.4	Active	Active	29.1	Active	Activity [34]: Active; Activity [35]: inactive; Activity [36]: 70.7%; Activity [37]: inactive; Activity [38]: Active; Activity [39]: 85.9%; Activity [40]: inactive; Activity [41]: Active; Activity [42]: inactive
